For orientation: AC50 means the concentration giving half of the maximal activity seen. Broadly, the IC50 is the point on the concentration scale where inhibition reaches its midpoint. As a reminder, the EC50 is the concentration at which the effect is half-maximal. A word on the CC50: it is the concentration giving 50% cytotoxicity.

One assay has as its target Cytochrome P450 3A4 (Homo sapiens, UniProt P08684). The note with it: Potency.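 Note: confirmatory qHTS run detecting inhibitors and substrates of CYP3A4.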
The nature of assay [1]: P. falciparum Dd2 growth inhibitors, dose response, SYBR Green, cherry-picked samples (AID 1159567). Format: functional, cell-based.
A short description of assay [2]: HepG2 cell cytotoxicity, dose response, cytotoxicity control, cherry-picked samples (AID 1159577). Format: functional, cell-based.
The next assay concerns the target T1, Bcl-2-like protein 10 (Homo sapiens, UniProt Q9HD36).
T1 sequence (Q9HD36 whole entry): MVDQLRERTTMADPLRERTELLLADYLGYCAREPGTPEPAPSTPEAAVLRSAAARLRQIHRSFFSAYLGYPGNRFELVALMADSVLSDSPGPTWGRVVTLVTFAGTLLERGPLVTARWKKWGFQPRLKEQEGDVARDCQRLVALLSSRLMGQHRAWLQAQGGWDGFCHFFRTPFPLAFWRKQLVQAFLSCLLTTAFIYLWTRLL
The assay is described as follows: displacers of TR3 peptide from Bcl-B, primary screen, selectivity assay for Bfl-1 inhibitor project, biochemical, fluorescence polarization, FITC-TR3 peptide (AID 748).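 Note: fluorescence polarization from a fluorescein-labelled TR3 peptide binding purified Bcl-B.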 For orientation: In fluorescence polarisation assays a small probe gives low polarisation when free and higher when bound to something large.

The target in assay [3] is T2, Estrogen receptor beta (Homo sapiens, UniProt Q92731).
T2 sequence (Q92731 whole entry): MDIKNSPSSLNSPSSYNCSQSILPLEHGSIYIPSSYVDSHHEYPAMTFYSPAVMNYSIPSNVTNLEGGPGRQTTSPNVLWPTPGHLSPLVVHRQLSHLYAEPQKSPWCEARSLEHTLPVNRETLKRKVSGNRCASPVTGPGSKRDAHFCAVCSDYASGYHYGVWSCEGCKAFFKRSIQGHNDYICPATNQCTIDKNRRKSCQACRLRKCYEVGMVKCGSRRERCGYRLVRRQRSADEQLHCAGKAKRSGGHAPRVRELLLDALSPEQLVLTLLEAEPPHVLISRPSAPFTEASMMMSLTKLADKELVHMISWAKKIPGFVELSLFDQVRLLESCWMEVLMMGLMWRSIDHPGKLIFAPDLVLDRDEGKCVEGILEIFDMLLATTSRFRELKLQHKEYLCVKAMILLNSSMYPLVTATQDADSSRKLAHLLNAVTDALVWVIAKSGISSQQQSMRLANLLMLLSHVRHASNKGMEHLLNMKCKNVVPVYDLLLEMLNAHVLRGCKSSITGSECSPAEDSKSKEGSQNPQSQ
Assay [4] concerns the target T2, Estrogen receptor beta. Put plainly: ERβ–SRC-3 coactivator interaction inhibitors, confirmation, orthogonal assay, biochemical, ELISA, streptavidin-HRP readout (AID 1060).
The target of the next assay is Prothrombin (Homo sapiens, UniProt P00734). Put plainly: Thrombin 1536 HTS Dose Response Confirmation. [Related pubchem assays: 1046 (Thrombin 1536 HTS; hits were confirmed in this assay)]. The assay is classed as functional.
The target of a further assay is Paired box protein Pax-8 (Homo sapiens, UniProt Q06710). Put plainly: inhibitors of PAX8-driven TPO luciferase reporter, dose response, RMG-I cells, cherry-pick (AID 687027).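 Note: luciferase reporter driven by Pax8 target thyroperoxidase promoter measured by SteadyGlo luminescence.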 The assay is classed as functional, cell-based. A general note: In a reporter assay the amount or activity of a reporter protein is the signal.
Paired box protein Pax-8, sequence (Q06710 whole entry): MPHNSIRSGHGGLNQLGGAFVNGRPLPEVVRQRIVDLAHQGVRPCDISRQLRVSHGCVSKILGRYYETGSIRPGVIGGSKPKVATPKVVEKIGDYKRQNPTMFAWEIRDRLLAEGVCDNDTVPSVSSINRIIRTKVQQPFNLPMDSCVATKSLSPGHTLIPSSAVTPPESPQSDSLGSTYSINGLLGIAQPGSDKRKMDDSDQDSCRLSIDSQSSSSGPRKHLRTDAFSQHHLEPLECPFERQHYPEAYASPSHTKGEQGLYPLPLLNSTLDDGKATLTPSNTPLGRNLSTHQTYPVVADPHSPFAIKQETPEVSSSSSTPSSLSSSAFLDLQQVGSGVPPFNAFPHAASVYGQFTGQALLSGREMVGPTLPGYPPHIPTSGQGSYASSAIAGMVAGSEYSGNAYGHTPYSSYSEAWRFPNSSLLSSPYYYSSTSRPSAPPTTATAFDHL
The nature of assay [5]: non-specific cell cytotoxicity, dose response, cytotoxicity control for PAX8 inhibitor project, plate reader, dry powder samples (AID 743021). Format: functional, cell-based.
The nature of assay [6]: inhibitors of intracellular T. cruzi replication, confirmation, NIH3T3 host cells, beta-gal luminescence (AID 2044).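 Note: intracellular parasites grown in NIH/3T3 mouse fibroblasts as host cells; luminescent beta-galactosidase reporter signal from transgenic T. cruzi replicating inside host cells; inhibitors lower the luminescence signal.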 The assay is classed as functional, cell-based.
Assay [7] in a line: cytotoxicity toward NIH3T3 fibroblasts, dose response, counter-screen, cell-based, ATP luminescence, mouse fibroblasts (AID 2010).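 Note: cells exposed to compound for about 90 hours before reading.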 Format: functional.
Assay [8] can be described thus: A2780 ovarian cancer cell cytotoxicity, dose response, cytotoxicity control, plate reader, dry powder samples (AID 743046). The assay is classed as functional, cell-based.
A short description of assay [9]: NIH:OVCAR-3 ovarian cancer cell cytotoxicity, dose response, PAX8 inhibitor project, plate reader, dry powder samples (AID 743044). Format: functional, cell-based.
The nature of assay [10]: cytotoxicity in OVCAR8 ovarian cancer cells, dose response, PAX8 project, cell-based, plate reader, dry powder samples (AID 743197). The assay is classed as functional. The note with it: OVCAR-8.
Assay [11] is described as follows: IGROV1 ovarian cancer cell cytotoxicity, dose response, PAX8 inhibitor project, plate reader, dry powder samples (AID 743043). Format: functional, cell-based. The settings on record: IGROV-1.
Assay [12] deals with Vero. Put plainly: host cell cytotoxicity of antiviral hits, dose response, cytotoxicity control for West Nile virus antiviral project, secondary assay (AID 1650). The assay is classed as functional. The settings on record: Chlorocebus sabaeus.
Assay [13] relates to Vero. Put plainly: cells. Format: functional. The settings on record: Chlorocebus sabaeus.
Assay [14] can be described thus: Shn3 3'UTR reporter inhibitors, dose response, cell-based, Clone20 osteoblasts, firefly luciferase, cherry-picked (AID 624132).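 Note: firefly luciferase luminescence from reporter carrying the Shn3 3'UTR in osteoblasts.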 Format: functional.
A short description of assay [15]: control 3'UTR Renilla luciferase suppression, dose response, counter-screen for Shn3 inhibitor project, cell-based, Clone20-Shn3RL, cherry-picked (AID 624133). Format: functional. In general terms: Counterscreens check selectivity or assay interference.
The target in assay [16] is T3, Acyl-homoserine lactone acylase PvdQ (Pseudomonas aeruginosa (strain LESB58), UniProt Q9I194).
T3 sequence (Q9I194 whole entry): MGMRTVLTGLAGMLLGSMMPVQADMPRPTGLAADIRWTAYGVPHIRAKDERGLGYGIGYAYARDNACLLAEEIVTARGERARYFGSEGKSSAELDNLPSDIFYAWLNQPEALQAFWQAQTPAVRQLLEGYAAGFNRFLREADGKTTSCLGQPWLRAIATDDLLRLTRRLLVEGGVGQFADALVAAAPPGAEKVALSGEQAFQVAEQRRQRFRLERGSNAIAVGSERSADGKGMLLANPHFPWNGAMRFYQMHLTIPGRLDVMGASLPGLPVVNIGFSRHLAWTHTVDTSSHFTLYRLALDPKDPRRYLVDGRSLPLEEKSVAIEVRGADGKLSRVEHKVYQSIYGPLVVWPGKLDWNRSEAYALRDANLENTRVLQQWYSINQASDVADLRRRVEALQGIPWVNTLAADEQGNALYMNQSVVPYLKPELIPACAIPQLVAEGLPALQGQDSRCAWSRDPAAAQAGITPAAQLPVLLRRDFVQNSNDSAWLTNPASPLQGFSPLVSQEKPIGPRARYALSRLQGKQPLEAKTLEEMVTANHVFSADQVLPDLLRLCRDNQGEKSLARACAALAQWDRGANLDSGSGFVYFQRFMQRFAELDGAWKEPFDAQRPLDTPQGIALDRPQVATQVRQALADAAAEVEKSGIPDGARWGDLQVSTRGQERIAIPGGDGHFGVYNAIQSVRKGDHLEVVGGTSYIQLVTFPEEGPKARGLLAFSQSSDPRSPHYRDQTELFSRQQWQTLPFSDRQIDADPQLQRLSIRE
Put plainly: P. aeruginosa PvdQ acylase inhibitors, dose response, biochemical, fluorescence, plate reader and imaging, cherry-picks (AID 493231).

Assay [17] concerns the target Dual specificity tyrosine-phosphorylation-regulated kinase 1A (Rattus norvegicus, UniProt Q63470). Format: biochemical, Homo sapiens.
The next assay addresses Large T antigen (Simian virus 40, UniProt P03070). Format: functional, Betapolyomavirus macacae.
Assay [18] has as its target Induced myeloid leukemia cell differentiation protein Mcl-1 (Homo sapiens, UniProt Q07820). Format: functional.
Assay [19] concerns the target T4, Histone-lysine N-methyltransferase NSD2 (Homo sapiens, UniProt O96028).
T4 sequence (O96028 whole entry): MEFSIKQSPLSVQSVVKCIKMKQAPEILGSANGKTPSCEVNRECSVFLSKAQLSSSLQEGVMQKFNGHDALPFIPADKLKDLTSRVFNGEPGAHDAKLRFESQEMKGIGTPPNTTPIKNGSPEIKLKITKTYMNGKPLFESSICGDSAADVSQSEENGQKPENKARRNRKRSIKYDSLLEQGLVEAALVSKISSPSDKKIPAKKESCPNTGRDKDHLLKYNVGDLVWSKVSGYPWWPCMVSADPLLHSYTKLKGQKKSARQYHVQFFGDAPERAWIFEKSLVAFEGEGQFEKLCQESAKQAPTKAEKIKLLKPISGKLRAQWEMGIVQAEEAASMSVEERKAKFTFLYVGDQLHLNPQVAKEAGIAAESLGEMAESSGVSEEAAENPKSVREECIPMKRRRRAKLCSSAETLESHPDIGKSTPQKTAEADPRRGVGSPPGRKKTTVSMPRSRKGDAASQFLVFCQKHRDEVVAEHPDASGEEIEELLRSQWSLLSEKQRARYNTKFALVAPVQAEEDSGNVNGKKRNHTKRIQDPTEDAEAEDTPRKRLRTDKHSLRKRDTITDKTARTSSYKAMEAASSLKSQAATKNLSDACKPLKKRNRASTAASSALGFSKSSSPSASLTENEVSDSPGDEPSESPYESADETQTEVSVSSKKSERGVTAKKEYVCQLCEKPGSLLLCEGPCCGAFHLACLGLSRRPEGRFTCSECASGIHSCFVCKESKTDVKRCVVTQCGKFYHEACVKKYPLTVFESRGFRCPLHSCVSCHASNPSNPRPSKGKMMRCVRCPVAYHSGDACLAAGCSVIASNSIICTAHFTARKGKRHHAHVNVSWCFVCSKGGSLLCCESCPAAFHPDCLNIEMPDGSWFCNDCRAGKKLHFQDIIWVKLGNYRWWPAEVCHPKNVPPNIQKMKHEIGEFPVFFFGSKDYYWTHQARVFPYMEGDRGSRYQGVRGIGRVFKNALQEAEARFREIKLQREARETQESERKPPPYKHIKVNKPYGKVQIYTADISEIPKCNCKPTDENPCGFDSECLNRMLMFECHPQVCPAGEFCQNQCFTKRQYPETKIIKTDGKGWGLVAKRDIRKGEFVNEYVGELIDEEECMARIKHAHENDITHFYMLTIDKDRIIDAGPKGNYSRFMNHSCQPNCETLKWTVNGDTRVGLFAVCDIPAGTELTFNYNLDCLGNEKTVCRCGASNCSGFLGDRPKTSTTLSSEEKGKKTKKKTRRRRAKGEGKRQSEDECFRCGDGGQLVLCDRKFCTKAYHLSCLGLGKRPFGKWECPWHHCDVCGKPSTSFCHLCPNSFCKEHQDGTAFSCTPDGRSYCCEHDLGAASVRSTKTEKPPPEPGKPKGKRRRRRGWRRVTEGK
The assay is classed as biochemical.

Calls of active or inactive are those of the source.

Cytochrome P450 3A4, sequence (P08684 whole entry): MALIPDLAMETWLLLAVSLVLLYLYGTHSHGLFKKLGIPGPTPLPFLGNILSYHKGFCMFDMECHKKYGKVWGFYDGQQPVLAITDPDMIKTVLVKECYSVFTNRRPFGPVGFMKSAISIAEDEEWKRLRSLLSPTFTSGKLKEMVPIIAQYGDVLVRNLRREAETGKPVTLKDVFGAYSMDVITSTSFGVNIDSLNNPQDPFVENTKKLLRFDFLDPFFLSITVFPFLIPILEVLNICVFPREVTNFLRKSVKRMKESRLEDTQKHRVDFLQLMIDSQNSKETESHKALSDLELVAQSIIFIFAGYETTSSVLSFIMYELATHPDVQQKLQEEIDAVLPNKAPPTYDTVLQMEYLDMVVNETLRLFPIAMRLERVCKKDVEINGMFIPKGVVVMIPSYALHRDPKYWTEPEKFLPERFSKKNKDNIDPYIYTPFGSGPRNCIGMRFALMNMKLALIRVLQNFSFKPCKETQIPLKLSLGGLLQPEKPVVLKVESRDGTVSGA
Induced myeloid leukemia cell differentiation protein Mcl-1, sequence (Q07820 whole entry): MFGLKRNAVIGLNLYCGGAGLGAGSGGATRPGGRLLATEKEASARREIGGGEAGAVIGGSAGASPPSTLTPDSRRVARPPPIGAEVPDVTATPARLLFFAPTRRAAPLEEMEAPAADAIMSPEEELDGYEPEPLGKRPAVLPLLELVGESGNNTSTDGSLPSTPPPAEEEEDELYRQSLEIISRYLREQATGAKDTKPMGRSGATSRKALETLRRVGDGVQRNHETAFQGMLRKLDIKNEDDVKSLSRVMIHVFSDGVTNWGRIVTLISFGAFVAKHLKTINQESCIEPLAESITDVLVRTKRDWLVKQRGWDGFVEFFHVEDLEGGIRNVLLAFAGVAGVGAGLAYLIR
Large T antigen, sequence (P03070 whole entry): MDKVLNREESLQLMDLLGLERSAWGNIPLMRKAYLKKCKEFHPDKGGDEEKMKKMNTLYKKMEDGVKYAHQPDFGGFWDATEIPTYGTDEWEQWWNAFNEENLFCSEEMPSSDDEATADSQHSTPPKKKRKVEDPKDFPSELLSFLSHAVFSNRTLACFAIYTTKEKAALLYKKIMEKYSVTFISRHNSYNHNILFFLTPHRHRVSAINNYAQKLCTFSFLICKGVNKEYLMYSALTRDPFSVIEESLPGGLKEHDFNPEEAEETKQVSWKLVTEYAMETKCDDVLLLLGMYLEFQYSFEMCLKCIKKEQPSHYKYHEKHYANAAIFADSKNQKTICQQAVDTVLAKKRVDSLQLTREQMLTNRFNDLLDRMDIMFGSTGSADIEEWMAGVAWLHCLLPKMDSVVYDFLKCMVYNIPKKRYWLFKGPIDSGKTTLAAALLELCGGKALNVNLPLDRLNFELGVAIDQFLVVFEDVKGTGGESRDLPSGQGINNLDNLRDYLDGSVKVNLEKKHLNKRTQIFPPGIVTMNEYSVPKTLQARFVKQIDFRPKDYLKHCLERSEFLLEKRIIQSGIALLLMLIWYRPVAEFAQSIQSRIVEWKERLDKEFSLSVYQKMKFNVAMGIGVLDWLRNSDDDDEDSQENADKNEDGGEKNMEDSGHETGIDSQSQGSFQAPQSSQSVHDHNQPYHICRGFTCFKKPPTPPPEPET

Turning to `COC(=O)NC(c1cccc(C)c1)C(C(C)=O)C(=O)OC` (stereo unspecified), on Cytochrome P450 3A4, the AC50 was 7.94 µM (inconclusive).
Regarding `O=S(=O)(c1ccc(F)cc1)N1C[C@@H]2N[C@H](C1)[C@@H]2c1ccc(-c2ccc(F)cc2)cc1`, the figures for the AC50 in [1] and in [2] were 7.37 µM (active) and 11 µM (active), respectively.
Consider `CC(=O)Nc1ccc(OC(=O)CC2SC(=O)NC2=O)cc1` (stereo unspecified), for which the results for the IC50 on Bcl-2-like protein 10, on Estrogen receptor beta [3] and at Estrogen receptor beta [4] were > 100 µM (inactive), 8.53 µM (active) and < 23 nM (not active), respectively.
Turning to `COc1ccc(S(=O)(=O)N2CCOCC2)cc1NC(=O)COC(=O)c1ccc(C)s1`, the IC50 at Prothrombin was 0.408 µM (active).
Turning to `CC(C)=CCC/C(C)=C/CN1C(=O)N(c2ccc(F)cc2)[C@H]2C[C@@H](c3ccccc3)[C@@H](C)[C@@H](C(=O)N3CCOCC3)C[C@H]21`, the values for the AC50 (at Paired box protein Pax-8; in [5]) were 2.66 µM (active) and 42 µM (active), respectively.
For `COc1ccc(/C=C2\CN(Cc3ccccc3)C/C(=C\c3ccc(OC)cc3OC)C2=O)c(OC)c1`, the values for the EC50 in [6] and in assay [7] were 1.83 µM (active) and 9.01 µM (active), respectively. The AC50 is 10.4 µM (active) at Paired box protein Pax-8 and 42.3 µM (active) in assay [5].
On to `O=C(Nc1cc(F)ccc1F)N1CCCCN2[C@@H](CO)[C@@H](c3ccc(-c4ccccc4)cc3)[C@@H]2C1`, for which the AC50 in assay [1] was 2.56 µM (active); in assay [2] it was 9.99 µM (active).
With `C[C@@H]1CCCCO[C@H](CN(C)S(=O)(=O)c2ccc(Cl)cc2)[C@@H](C)CN([C@@H](C)CO)C(=O)c2cc(NS(=O)(=O)c3ccc(F)cc3)ccc2O1`, the AC50 is 7.67 µM (active) at Paired box protein Pax-8, 11.5 µM (active) in assay [8], 39 µM (active) in [9] and 62.8 µM (active) in [10].
On to `CC(Nc1nc(O)c2c(ncn2Cc2ccccc2)n1)C(=O)O` (stereo unspecified), for which the IC50 against Prothrombin is > 50 µM (not active).
Take `COc1ccc(S(=O)(=O)Nc2ccc3c(c2)C(=O)N([C@H](C)CO)C[C@H](C)[C@@H](CN(C)S(=O)(=O)c2ccc(F)cc2)OCCCC[C@H](C)O3)cc1`: the AC50 is 3.96 µM (active) at Paired box protein Pax-8; 34.7 µM (active) in assay [8]; 12.5 µM (active) in assay [9]; 37.1 µM (active) in [11]; 22.9 µM (active) in assay [10].
`COc1ccc(N(C(=O)c2ccco2)S(=O)(=O)c2cccc([N+](=O)[O-])c2)cc1`: at Prothrombin, the IC50 was 2.18 µM (active).
Consider `COCc1cc(C2SCC(=O)Nc3c2c(O)nn3C(C)C)ccc1OC` (stereo unspecified), for which the IC50 on Bcl-2-like protein 10 was > 100 µM (inactive).
For the compound `Cc1ccc(Cn2ccc(NC(=O)c3nn(C)cc3[N+](=O)[O-])n2)cc1`, the values for the CC50 in the assay on Vero [12] and in the assay on Vero [13] were 11.6 µM (active) and 13.8 µM (active), respectively. Also, the AC50 in assay [14] was 4.09 µM (active); in assay [15] it was 27.3 µM (active).
As for `Cc1cc2n(c1)CCn1c(C)ccc1-2`, the IC50 is 3.91 µM (active) on Estrogen receptor beta [3] and 3060 nM (not active) against Estrogen receptor beta [4].
For the compound `COc1ccc(C#Cc2ccc([C@@H]3[C@H](CO)N4CCCCN(Cc5ccccc5F)C[C@@H]34)cc2)cc1`, the AC50 is 0.756 µM (active) in [1] and 9.38 µM (active) in [2].
As to `c1cnc2ccc(-c3ccc4ncccc4c3)cc2c1`, the AC50 in assay [16] was 10.7 µM (active); in assay [17] it was 189 nM (active).
With `Cc1ccc(C2=NC(=O)/C(=C/c3cc(O)c(O)c(Br)c3)S2)cc1`, the IC50 at Large T antigen is 4.91 µM (active); in assay [18], 767 nM (active). For the same compound, in assay [19], the AC50 was 3.45 µM (active).
In the case of `Cc1cc(-c2ccc(/N=N/c3cc(S(=O)(=O)O)c4ccccc4c3N)c(C)c2)ccc1/N=N/c1cc(S(=O)(=O)O)c2ccccc2c1N`, the concentration at half-maximal activity (AC50) on Cytochrome P450 3A4 is 25.1 µM (inconclusive).
